Assay results reported in patent US9637451B2, “Indole compound” (ASTELLAS PHARMA INC., priority 2014, dated 2017).
pEC50: −log10 of the molar value.

Tests used:
[1] = biological target: T1, human MT1 receptor (Homo sapiens, UniProt P48039); assay: Activation of human MT1 receptor in receptor-expressing cells, intracellular Ca2+ by FLIPR; assay type: cell-based
T1 construct: expressed in transfected cells

[2] = biological target: T2, human MT2 receptor (Homo sapiens, UniProt P49286); assay: Activation of human MT2 receptor in receptor-expressing cells, intracellular Ca2+ by FLIPR; assay type: cell-based
T2 construct: expressed in transfected cells
T2 sequence (P49286 1-362): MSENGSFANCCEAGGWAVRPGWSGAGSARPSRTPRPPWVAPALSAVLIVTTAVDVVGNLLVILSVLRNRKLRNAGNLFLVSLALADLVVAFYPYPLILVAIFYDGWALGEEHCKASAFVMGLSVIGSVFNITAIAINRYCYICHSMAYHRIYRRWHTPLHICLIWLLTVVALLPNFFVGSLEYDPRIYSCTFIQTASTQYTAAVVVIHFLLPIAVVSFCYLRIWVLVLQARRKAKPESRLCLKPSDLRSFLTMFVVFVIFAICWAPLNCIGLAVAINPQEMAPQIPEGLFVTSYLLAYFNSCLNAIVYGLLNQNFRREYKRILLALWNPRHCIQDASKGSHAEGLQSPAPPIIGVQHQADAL

[3] = tested on: SD female rats; assay: Effect of test compound on urethral pressure in anesthetized rats; assay type: in vivo, rat
Text: SD female rats were anesthetized with urethane and subjected to laparotomy. Then, the bladder apex was incised and a catheter was inserted from the bladder apex. Further, the catheter tip was ligated and fixed to be located in the proximal urethra portion. The catheter was connected to a pressure transducer and an infusion pump. Further, a catheter for administrating the compound was fitted into the femoral vein. Physiological saline was continuously infused into the urethra and the perfusion pressure in the urethra was measured. After the urethral pressure was stabilized, the test compound that had been dissolved in physiological saline, or physiological saline including 5% dimethylacetamide and 0.5% Cremophor was administered intravenously at 0.01 mg/kg or 0.1 mg/kg, and a change in urethral pressures was measured.
Further, the results of administering an active metabolite of midodrine (ST-1059: purchased from CHEMIZON) (J. Urology, 118, 980-982 (1977)) which is an α1 adrenoceptor agonist and is confirmed to have a clinical effect on stress urinary incontinence at doses, 0.01 mg/kg and, 0.1 mg/kg in rats, presumed to correspond to the clinical doses are referenced and shown in the Tables below.
The increment value in the urethral pressures of ramelteon and the Example compounds of the present invention at the time of administration are shown in Table 3. Ex represents Example No. of the test compound and N.T represents Not Tested.

[4] = CSF-to-plasma unbound concentration ratio in rat after intravenous administration; assay type: in vivo
Method: A test compound (100 μg/mL, 50% acetonitrile solution) at 1% (v/v) with respect to the amount of the plasma was added to rat plasma, and dispensed to a sample for a supernatant and a sample for the plasma. The sample for a supernatant was ultracentrifuged at 436,000×g and 37° C. for 140 minutes, and the sample for the plasma was incubated at 37° C. for 140 minutes.
After 140 minutes, the sample for a supernatant after the ultracentrifugation and the sample for the plasma were taken, and mixed with the blank plasma or the blank supernatant, respectively. Acetonitrile including an internal standard material was added to each of the samples with the removal of protein, and after the centrifugation at 2150×g and 4° C. for 10 minutes the supernatant was injected into LC-MS/MS.
The unbound fraction in the plasma was calculated by the following equation.
To the plasma of a rat was added a test compound (0.2 mM, 50% acetonitrile solution) in an amount corresponding to 1% (v/v) of the plasma amount, and 200 μL of obtained plasma sample was filled into a plasma chamber of a RED device insert. A buffer chamber was filled with 350 μL of PBS, followed by performing equilibrium dialysis by stirring in a CO2 incubator at 37° C. for 16 hours. The sample after the completion of the equilibrium dialysis was recovered and the volume of the plasma sample was measured. To the plasma sample after the completion of the equilibrium dialysis were added PBS, a 20 mM ammonium formate buffer, and acetonitrile including an internal standard material. Similarly, to the PBS sample after the completion of the equilibrium dialysis was added a blank plasma, a 20 mM ammonium formate buffer, and acetonitrile including an internal standard material. This sample was left to stand at 4° C. for 30 minutes and then centrifuged 1500×g for 10 minutes, and the supernatant was measured by LC-MS/MS. The unbound fraction in the plasma was calculated by the following equation. fp=Cf/{(Cp−Cf)(V/V0)+Cf}
At 15 minutes after intravenously administration of the test compound to the rats, the plasma and CSF were collected. A 50% acetonitrile solution and an acetonitrile including internal standard material were added to the collected plasma or CSF. After centrifuging this sample at 4° C. and 2150×g for 10 minutes, the supernatant was measured by LC-MS/MS, and the total concentration of the test compound in the plasma (Cplasma,t) and the concentration of the test compound in CSF (CCSF) were obtained. The unbound concentration in the plasma (Cplasma,u) of the test compound and the CSF-to-plasma unbound concentration ratio (Kp,uu,CSF) of the test compound was calculated by the following equation.
The Kp,uu,CSF values and the Kp,brain values of ramelteon and some Example compounds of the present invention are shown in Table 4. Ex represents Example No. of the test compound. Unless otherwise specified, the Kp,uu,CSF was calculated using the fp values determined by an ultracentrifugation method. Further, N.T. represents Not Tested.
(Ramelteon represents the values of Kp,uu,CSF after 10 minutes after the intravenous administration. Further, the Kp,uu,CSF of Examples 37 and 38 was calculated using the fp values determined by an equilibrium dialysis method. In addition, N.D. denotes the concentration of the test compound in CSF that is no higher than the detection limit.)

[5] = tested on: rat; assay: Measurement test of electroencephalogram in rat (sleep-awake cycle); assay type: in vivo
Text: After the completion of a quarantine period, the animals showing no abnormal health condition were subjected to an electroencephalogram electrode chronic implantation surgery with reference to brain atlas of Pellegrino (Plenum Press, New York (1979)), or the like. Under anesthesia with pentobarbital sodium, the rat was calibrated in a brain stereotaxic apparatus. In the frontal cortex, a monopolar silver ball electrode having a diameter of the tip of about 1 mm was placed on a hard film of the brain. Into the hippocampus, a laminated bipolar electrodes made of stainless steel was stuck. The reference electrode was screwed around the olfactory brain. Further, as for the electromyogram measurement, the lead wire was implanted in the both electrodes about 1 cm between the electrodes in the neck portion. The other end was exposed to the head portion subcutaneously. The electrodes and the lead wires were subjected to soldering with connector sockets and fixed to the skull with a dental resin or the like.
The rats were accommodated in a measurement cage under rat feeding and water supply on the morning of the day of administration, and accustomed to the measurement environment. After measuring the weight using an electronic scale balance, a lead wire and a connector socket were connected 30 minutes or more before the start of the electroencephalogram measurement, and the rat was accustomed in the measurement state under no anesthesia and no custody. The test compounds were intraperitoneally or orally administered to the rats and the electroencephalogram was measured continuously until 6 hours after the administration.
Ramelteon: solvent, 0.1 mg/kg, 1 mg/kg, and 10 mg/kg; intraperitoneal administration
Example 1: solvent, 3 mg/kg, 30 mg/kg, and 300 mg/kg; oral administration
Example 6: solvent, 10 mg/kg, 30 mg/kg, and 300 mg/kg; oral administration
The electrical signals of electroencephalogram and of electromyogram were applied to an electroencephalogram system and an electroencephalogram frequency analysis program of a personal computer was used to acquire the wave form of the electroencephalogram from the electroencephalograph system. In addition, the image signals of the electroencephalogram waveform were applied to an EEG video system and recorded on DVD-R using a DVD recorder. The behavior observation was carried out through a video camera at the same time as the electroencephalogram measurement and the images were also recorded on DVD-R using DVD recorder.
The presence or absence of abnormality in the electroencephalogram waveform in up to 6 hours from immediately after the administration, to each animal, respectively, was observed.
The analysis of a sleep-awake cycle was carried out using a sleep stage display-supporting program (MTS50061B, Japan Santec Corporation) based on the electroencephalogram waveforms acquired with an electroencephalogram frequency analysis program. Using the index of electroencephalogram, electromyogram, and behavior, the sleep steps were classified into an awake phase, a rest phase, a slow wave light sleep (S.W.L.S.) phase, a slow wave deep sleep (S.W.D.S.) phase, and a fast wave sleep (F.W.S., REM sleep) phase. Further, the rest phase, the slow wave light sleep phase, and the slow wave deep sleep phase were summed to determine a slow wave sleep (S.W.S., Non-REM sleep) phase. […] As the assessment criteria in the respective sleep steps, the criteria described in Japanese Pharmacological Journal 84, 25-89 (1984) were used.

[6] = tested on: isolated urethra in a rat; details: Patent Document 5; cited from earlier work
[7] = maximum reaction by ramelteon taken as 100%
[8] = oral, any of the doses 3, 30 and 300 mg/kg

T1 sequence (P48039 whole entry): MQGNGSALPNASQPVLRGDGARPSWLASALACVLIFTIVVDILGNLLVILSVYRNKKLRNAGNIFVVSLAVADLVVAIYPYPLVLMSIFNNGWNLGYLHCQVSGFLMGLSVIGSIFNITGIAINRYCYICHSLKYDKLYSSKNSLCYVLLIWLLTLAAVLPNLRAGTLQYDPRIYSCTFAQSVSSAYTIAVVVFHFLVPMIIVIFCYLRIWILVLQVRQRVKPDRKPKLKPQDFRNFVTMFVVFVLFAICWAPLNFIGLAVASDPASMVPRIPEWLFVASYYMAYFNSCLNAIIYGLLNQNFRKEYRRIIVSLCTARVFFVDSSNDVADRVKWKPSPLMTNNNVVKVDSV

pEC50 ([1]; HEK293EBNA1 cells stably expressing human MT1 and Gq/i chimeric G protein, Ca2+ FLIPR) | Emax [1, 7] | pEC50 ([2]; HEK293 cells stably expressing human MT2 and Gq/i chimeric G protein, Ca2+ FLIPR) | Emax [2, 7] | Kp uu at 0.25 h ([4]; CSF and plasma (unbound), iv, 15 minutes after intravenous administration, fp by ultracentrifugation method) | Kp,uu,CSF ([4]; 10 minutes after the intravenous administration) | Kp uu at 10 min ([4]; CSF and plasma (unbound), iv, 10 minutes after the intravenous administration) | occupancy of the respective sleep steps ([5]; 1 mg/kg intraperitoneal, up to 6 hours) | Structure (SMILES) | urethral pressure increasing action ([3]; dose of 0.01 mg/kg) | occupancy in the respective sleep steps of electroencephalogram [5, 8] | sleep action [5, 8] | Increment value in the urethral pressures compared with ST-1059 ([3]; intravenous) | occupancy of the sleep step of electroencephalogram ([5]; 0.1 mg/kg intraperitoneal, up to 6 hours) | sleep action ([5]; intraperitoneal 0.1, 1 and 10 mg/kg) | contraction of isolated urethra, increase of urethral pressure [6]
8.41 | 95% | 7.85 | 119% | 0.05 |  |  |  | CCC(=O)NCCc1c(C)[nH]c2ccc(OCCOc3ccn(C)n3)cc12 [Example 1, N-[2-{2-methyl-5-(2-[(1-methyl-1H-pyrazol-3-yl)oxy]ethoxy}-1H-indol-3-yl)ethyl]propanamide] | good urethral pressure increasing action | no change in the occupancy in the respective sleep steps of electroencephalogram could be seen | there was no sleep action |  |  |  | 
 |  |  |  |  | 1.74 | > 1 | significantly increases | CCC(=O)NCC[C@@H]1CCc2ccc3c(c21)CCO3 [Ramelteon, ramelteon, reference compound] |  |  |  | equal to or more than that of ST-1059 | there is a tendency that the occupancy of the sleep step of electroencephalogram from a dose of 0.1 mg/kg increases | there is a sleep action | contract the isolated urethra in a rat to increase the urethral pressure of the rat
